Measurements published in paper PMC12808645 (Nature Communications, 2025).

How the values were obtained:
NanY177A-Iav [1] = assay type: binding, Halyomorpha halys
NanY172F-Iav [2] = assay type: binding, Halyomorpha halys
NanY177F-Iav [3] = assay type: binding, Halyomorpha halys
NanY172A-Iav [4] = assay type: binding, Halyomorpha halys
Nan-Iav = assay type: cell-based, Halyomorpha halys
NanY177A-Iav [5] = assay: Whole-cell electrophysiology, NanY177A-Iav; assay type: cell-based, Halyomorpha halys
NanY172F-Iav [6] = assay type: binding, Halyomorpha halys; remark: listed apart in the source
NanY177A-Iav [7] = assay type: binding, Halyomorpha halys; remark: listed apart in the source
NanY177F-Iav [8] = assay type: binding, Halyomorpha halys; remark: listed apart in the source
NanY172A-Iav [9] = assay type: binding, Halyomorpha halys; remark: listed apart in the source

In the case of `NC(=O)c1cccnc1` [NAM, nicotinamide], the “lowering of NAM binding affinity relative to WT” value (NanY177A-Iav [1]) is reported as greater than 100 fold, the Ki (NanY177A-Iav [1]; read-out: Ki NAM, competition with [3H]-AP, affinities exceeding 10 mM could not be accurately determined) is reported as greater than 10000 µM and the “increase of Ki for NAM relative to WT” value (NanY172F-Iav [2]) is reported as ~ 10 fold. For the same compound, the “weaker NAM affinity than WT” value (NanY177F-Iav [3]) was ~ 10 fold, the “raising of Ki for NAM relative to WT” value (NanY172A-Iav [4]) was “two orders of magnitude” and the “effect on whole-cell current” value (Nan-Iav; 1 mM NAM, ±60 mV) was “robustly stimulated”. For the same compound, the “desensitization and reversibility of evoked currents” value (Nan-Iav; prolonged or repeated application, washout) was “non-desensitizing upon prolonged or repeated application and are reversible upon washout”, the EC50 (Nan-Iav; read-out: apparent EC50) was roughly 100 µM and the NAM-induced channel activity (NanY177A-Iav [5]) was “abolishes”.
For `C[C@]1(COC(=O)C2CC2)[C@@H]2C[C@H](O)[C@@]3(C)Oc4cc(-c5cccnc5)oc(=O)c4[C@H](O)[C@@H]3[C@@]2(C)CC[C@@H]1OC(=O)C1CC1` [[^3H]-AP], the “difference in [3H]-AP Kd relative to WT” value (NanY172F-Iav [6]) was 3 fold, the “greater [3H]-AP Kd than WT” value (NanY177A-Iav [7]) was ~ 200 fold and the “[3H]-AP Kd compared with WT” value (NanY177F-Iav [8]) was “similar”. The “increase in [3H]-AP Kd relative to WT” value (NanY172A-Iav [9]) was ~ 100 fold.
For `[Ca+2]` [Ca^2+], the “% inhibition of inward current” value (Nan-Iav) was ~ 50% and the “% inhibition of outward current” value (Nan-Iav) was ~ 20%.
For `N.N.N.N.N.N.N.N.N.N.N.N.N.N.[Cl-].[Cl-].[Cl-].[Cl-].[Cl-].[Cl-].[O-2].[O-2].[Ru+3].[Ru+3].[Ru+4]` [ruthenium red], the “effect on AP-elicited current” value (Nan-Iav; pore blocker) was “inhibited”.
